Test results as given in patent US7407772B2, “Screening and selection methods for statin drug combinations” (Merck & Co., Inc., priority 2001, dated 2008).
“Also recorded” adds a separate entry of the source. Where two headings read alike, the source gives them in different places.

What was measured:
[1] = test system: human recombinant UGT isoforms; test: UGT-specific glucuronidation assay, identification of responsible isoforms; type: in vitro ADME
Method: To examine UGT isoforms responsible for the glucuronidation of statins, incubations with various human recombinant UGT isoforms were performed using the same conditions as described herein for human liver microsomes in Example 1, except that the mixture contained 0.3 mg UGTs and was incubated for up to 60 min.

[2] = cited from earlier work; for increase of plasma AUC by gemfibrozil: humans, multiple oral doses of gemfibrozil, single oral dose of simvastatin or lovastatin; for Cmax: reported values following 600 mg bid gemfibrozil or 200 mg qd fenofibrate in humans
[3] = Pharmacokinetics after oral simvastatin in dogs pretreated with vehicle, gemfibrozil or fenofibrate; details: dog, in vivo
[4] = test system: glucuronidation of simvastatin acid (UDPGA-dependent); test: Inhibition of simvastatin acid glucuronidation in dog liver microsomes; type: in vitro ADME; details: pH 7, probe simvastatin acid (10-20 μM)
Method: A typical incubation mixture, in a final volume of 0.3 ml, contained 0.45 mg human or animal liver microsomes, preincubated with 0.045 mg Brij 58 (or 0.0225 mg alamethicin) for 15 min, 20 mM MgCl2, 5 mM UDPGA, and 0.05 M Tris buffer, pH 7.0.

[5] = test system: glucuronidation of SVA (UDPGA-dependent); test: in vitro; details: human, liver microsomes, pH 7, probe SVA (10-20 μM), IC50, SVA Glucuronidation, statin 10-20 μM, UDPGA
Method: (§1) The term “glucuronidation inhibition assay” as used herein refers to the following assay when performed with human liver microsomes.
(§2) The effects of inhibitors on metabolism of the statins were expressed as percentages of metabolites (statin glucuronides and lactones) formed in the presence of inhibitors relative to the corresponding values obtained in the absence of inhibitors (control) on the same day.
(§3) Incubations were performed in triplicate for each concentration of inhibitors, and involved co-incubation of GFZ or ketoconazole (1 μM) with statins (10-20 μM) in the presence of NADPH (oxidation) or UDPGA (glucuronidation).

[6] = test system: glucuronidation of CVA (UDPGA-dependent); test: in vitro; details: human, liver microsomes, pH 7, probe CVA (10-20 μM), IC50, CVA Glucuronidation, statin 10-20 μM, UDPGA
Method: as §1, §2, §3

human liver microsomes [7] = test: in vitro
Method: as §1, §2, §3

[8] = test system: glucuronidation of AVA (UDPGA-dependent); test: in vitro; details: human, liver microsomes, pH 7, probe AVA (10-20 μM), IC50, AVA Glucuronidation, statin 10-20 μM, UDPGA
Method: as §1, §2, §3

[9] = test system: glucuronidation of RVA (UDPGA-dependent); test: in vitro; details: human, liver microsomes, pH 7, probe RVA (10-20 μM), IC50, RVA Glucuronidation, statin 10-20 μM, UDPGA
Method: as §1, §2, §3

CYP3A4 = target: T1, CYP3A4 (Homo sapiens, UniProt P08684); details: human liver microsomes; cited from earlier work
T1 construct: in human liver microsomes, an in vitro assay for determining hepatic CYP3A4 activity; host or cells: human liver microsomes

[10] = Ex vivo simvastatin hydrolysis in dog plasma; type: in vitro ADME
[11] = dog, in vivo
[12] = Clinical pharmacokinetics in humans (literature); type: in vivo; details: at their respective therapeutic doses
[13] = test system: oxidative metabolism of simvastatin acid (NADPH-dependent); test: Inhibition of simvastatin acid oxidation in dog liver microsomes; type: in vitro ADME; details: pH 7.4, probe simvastatin acid (10-20 μM)
[14] = dog, in vivo, po
[15] = test system: CYP3A-mediated oxidation of SVA; test: in vitro; details: human, pH 7.4
Method: (§4) The term “oxidation inhibition assay” as used herein refers to the following assay when performed with human liver microsomal protein.
as §3

[16] = test system: oxidation of CVA to hydroxylated metabolite M1; test: in vitro; details: human, pH 7.4
Method: as §4, §3

[17] = test system: oxidative metabolism of AVA (NADPH-dependent); test: in vitro; details: human, pH 7.4
Method: as §4, §3

[18] = test system: oxidation of CVA to O-demethylated metabolite M2; test: in vitro; details: human, pH 7.4
Method: as §4, §3

[19] = test system: oxidation of CVA (both oxidative metabolites); test: in vitro; details: human, pH 7.4
Method: as §4, §3

[20] = test system: oxidation of CVA to metabolite M1; test: in vitro; details: human, pH 7.4
Method: as §4, §3

[21] = test system: oxidative metabolism of SVA (NADPH-dependent); test: in vitro; details: human, pH 7.4
Method: as §4, §3

[22] = test system: oxidation of CVA to metabolite M2; test: in vitro; details: human, pH 7.4
Method: as §4, §3

human liver microsomes [23] = test: Glucuronidation assay: statin glucuronidation in human liver microsomes; type: in vitro ADME; details: preliminary data
Method: (§5) The term “glucuronidation assay” as used herein refers to the following assay when performed with human liver microsomes. […] Unless otherwise specified, the reaction was started by the addition of statins following a 3-min pre-incubation at 37° C., and the reaction was incubated for 45-60 min. Control experiments included incubation mixtures with either microsomes or UDPGA missing. The reaction was terminated, at appropriate time intervals, by the addition of 0.8 ml acetonitrile (ACN). […] The ability of statins to undergo glucuronidation was measured by formation of statin glucuronide and statin lactones, and expressed in term of intrinsic clearance (Clint). The CLint was estimated by dividing Vmax by apparent Km. The Km and Vmax values were estimated using a nonlinear regression program, based on a Michealis-Menten equation as follow: V=Vmax×C/(Km+C); V=formation rate of statin glucuronide+lactone, and C=substrate concentration. Incubations were performed in triplicate for human liver microsomes (pooled from n=10) or UGTs at 250-μM substrate concentration. Values are mean±SD (n=3 to 5).

[24] = as above; type: in vitro ADME; details: human, pH 7, read-out: intrinsic clearance of glucuronidation
Method: as §5

[25] = test system: CYP3A (SVA, AVA); CYP3A and CYP2C8 (CVA); test: in vitro; details: human, human liver microsomes, pH 7.4
Method: For oxidative metabolism studies, a typical incubation mixture, in a final volume of 0.5 mL, contained 0.1-0.25 mg liver microsomal protein, 0.1M sodium phosphate buffer (pH 7.4), 10 mM MgCl2, and 1 mM NADPH. […] Incubations were conducted at 37° C. and were terminated after 10-20 min (with NADPH) by the addition of ACN (acetonitrile). The ACN extracts were evaporated to dryness and reconstituted for analysis by HPLC with UV detection.
In brief, samples, held in an autosampler set at 5° C., were chromatographed on either a Betasil C18 (250×4.6 mm, 5 μm) or a Zorbax C18 (Waters, 150×4.6 mm, 5 μm) column, preceded by a C18 guard column, with a linear gradient of acetonitrile in 10 or 25 mM ammonium acetate, pH 4.5. […] Due to unavailability of authentic standards for oxidative metabolites of statins, quantitation of these metabolites in the in vitro incubation mixtures was accomplished using standard curves for their respective statins, assuming identical extraction recoveries and extinction coefficients between the parent drug and its corresponding metabolites.

T1 sequence (P08684 whole entry): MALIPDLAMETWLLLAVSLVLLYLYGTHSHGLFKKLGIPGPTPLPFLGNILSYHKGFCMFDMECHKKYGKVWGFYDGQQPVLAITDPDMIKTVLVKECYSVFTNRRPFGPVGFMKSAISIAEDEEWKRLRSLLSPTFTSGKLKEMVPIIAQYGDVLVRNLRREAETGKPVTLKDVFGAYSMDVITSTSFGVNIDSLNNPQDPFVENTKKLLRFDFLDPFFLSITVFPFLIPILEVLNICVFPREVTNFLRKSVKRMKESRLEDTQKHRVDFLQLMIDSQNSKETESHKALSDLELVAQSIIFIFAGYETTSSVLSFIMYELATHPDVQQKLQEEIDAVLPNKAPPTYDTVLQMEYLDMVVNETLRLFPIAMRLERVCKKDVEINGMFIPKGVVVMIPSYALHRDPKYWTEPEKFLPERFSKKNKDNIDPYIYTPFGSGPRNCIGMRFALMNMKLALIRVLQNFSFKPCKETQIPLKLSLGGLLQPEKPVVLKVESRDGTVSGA

## CCC(C)(C)C(=O)O[C@H]1C[C@@H](C)C=C2C=C[C@H](C)[C@H](CC[C@@H](O)C[C@@H](O)CC(=O)O)[C@H]21 [Simvastatin acid, simvastatin acid]
[1]; listed as SVA
  UGT isozymes catalyzing glucuronidation of the substance: UGT1A1 and 1A3; also recorded: UGT1A10
[2]
  increase of plasma AUC by gemfibrozil: 185%

## CC(C)(Oc1ccc(C(=O)c2ccc(Cl)cc2)cc1)C(=O)O [Fenofibric acid, fenofibric acid]
[3]; Cmax of fenofibric acid, fenofibrate treated
  Cmax: 77 ± 9.7 µM
[4]
  IC50: 283 µM

## Cc1ccc(C)c(OCCCC(C)(C)C(=O)O)c1 [Gemfibrozil, gemfibrozil]
[5]
  IC50: 354 µM
[6]
  IC50: 82 µM
Human liver microsomes [7]
  mode of inhibition of simvastatin acid glucuronidation: competitive inhibition
Human liver microsomes [7]; read-out: IC50, AVA Glucuronidation, statin 10-20 μM, UDPGA
  IC50: 316 µM
[8]
  IC50: 314 µM
[9]
  IC50: ~400 µM
CYP3A4
  effect on CYP3A4 mediated 1'-hydroxylation of midazolam: no appreciable inhibitory effect
[10]
  effect on ex vivo simvastatin hydrolysis: Minimal effect
[10]; listed as gemfibrozil
  effect on ex vivo simvastatin hydrolysis: did not affect
[3]; po, 75 mg/kg, AUC 12 hr of gemfibrozil, gemfibrozil 75 mg/kg bid for 5 days
  AUC(0-t): 1440 ± 176 µM·h
[3]; po, 75 mg/kg, Cmax of gemfibrozil, gemfibrozil treated (75 mg/kg bid for 5 days)
  Cmax: 446 ± 66 µM
[1]
  UGT isozymes catalyzing glucuronidation of the substance: UGT1A1 and 1A3
[11]
  decrease in the biliary excretion of simvastatin-glucuronide: ~2 fold
[12]
  exposure in humans relative to fenofibrate/fenofibric acid: > 2 fold
[13]
  IC50: ~1000 µM
[4]
  IC50: 195 µM
[14]
  SVA/SV AUC ratio, Gem/vehicle: 5.4 ± 2.1
[15]
  IC50: > 800 µM
[16]
  IC50: 87 µM
[17]
  IC50: > 750 µM
[18]
  IC50: 220 µM
[2]
  Cmax: 100 to 300 µM

## CC(=O)N1CCN(c2ccc(OCC3COC(Cn4ccnc4)(c4ccc(Cl)cc4Cl)O3)cc2)CC1 (stereo not drawn) [Ketoconazole, ketoconazole]
[19]
  inhibition at 1 µM: ≤ 50%
[20]
  inhibition at 1 µM: 68%
[17]
  inhibition at 1 µM: > 90%
[21]
  inhibition at 1 µM: > 85%
[22]
  inhibition at 1 µM: ~50%

## CC[C@H](C)C(=O)O[C@H]1C[C@@H](C)C=C2C=C[C@H](C)[C@H](CC[C@@H]3C[C@@H](O)CC(=O)O3)[C@H]21 [lovastatin lactone, lovastatin]
[2]
  increase of plasma AUC by gemfibrozil: no significant effect

## COCc1c(C(C)C)nc(C(C)C)c(/C=C/[C@@H](O)C[C@@H](O)CC(=O)O)c1-c1ccc(F)cc1 [CVA, cerivastatin]
Human liver microsomes [23]
  CLint, Glucuronidation: 2.9 ul/min/mg protein
  Relative Contribution of glucuronidation to overall metabolism: 22
[24]
  microsomal CLint: 2.9 µL/min/mg
[25]
  microsomal CLint: 10 µL/min/mg

## CC[C@H](C)C(=O)O[C@H]1C[C@@H](C)C=C2C=C[C@H](C)[C@H](CC[C@@H](O)C[C@@H](O)CC(=O)O)[C@H]21 [lovastatin acid]
[2]
  increase of plasma AUC by gemfibrozil: 280%

## CC(C)OC(=O)C(C)(C)Oc1ccc(C(=O)c2ccc(Cl)cc2)cc1 [Fenofibrate, fenofibrate]
[1]
  UGT isozymes catalyzing glucuronidation of the substance: UGT1A9 and isoforms of the UGT2B subfamily
[2]
  Cmax: 15 to 55 µM
